Assays:
MERTK = target: T1, MERTK (Homo sapiens, UniProt Q12866); assay: TR-FRET kinase activity assay, MERTK; format: biochemical; conditions: for IC50: TR-FRET activity assay, ATP at Km, 60 minutes, read-out: Mer IC50; for FLT3/Mer ratio (FLT3 IC50/Mer IC50): ratio of Mer to FLT3: FLT3 IC50/Mer IC50
T1 sequence (Q12866 21-999): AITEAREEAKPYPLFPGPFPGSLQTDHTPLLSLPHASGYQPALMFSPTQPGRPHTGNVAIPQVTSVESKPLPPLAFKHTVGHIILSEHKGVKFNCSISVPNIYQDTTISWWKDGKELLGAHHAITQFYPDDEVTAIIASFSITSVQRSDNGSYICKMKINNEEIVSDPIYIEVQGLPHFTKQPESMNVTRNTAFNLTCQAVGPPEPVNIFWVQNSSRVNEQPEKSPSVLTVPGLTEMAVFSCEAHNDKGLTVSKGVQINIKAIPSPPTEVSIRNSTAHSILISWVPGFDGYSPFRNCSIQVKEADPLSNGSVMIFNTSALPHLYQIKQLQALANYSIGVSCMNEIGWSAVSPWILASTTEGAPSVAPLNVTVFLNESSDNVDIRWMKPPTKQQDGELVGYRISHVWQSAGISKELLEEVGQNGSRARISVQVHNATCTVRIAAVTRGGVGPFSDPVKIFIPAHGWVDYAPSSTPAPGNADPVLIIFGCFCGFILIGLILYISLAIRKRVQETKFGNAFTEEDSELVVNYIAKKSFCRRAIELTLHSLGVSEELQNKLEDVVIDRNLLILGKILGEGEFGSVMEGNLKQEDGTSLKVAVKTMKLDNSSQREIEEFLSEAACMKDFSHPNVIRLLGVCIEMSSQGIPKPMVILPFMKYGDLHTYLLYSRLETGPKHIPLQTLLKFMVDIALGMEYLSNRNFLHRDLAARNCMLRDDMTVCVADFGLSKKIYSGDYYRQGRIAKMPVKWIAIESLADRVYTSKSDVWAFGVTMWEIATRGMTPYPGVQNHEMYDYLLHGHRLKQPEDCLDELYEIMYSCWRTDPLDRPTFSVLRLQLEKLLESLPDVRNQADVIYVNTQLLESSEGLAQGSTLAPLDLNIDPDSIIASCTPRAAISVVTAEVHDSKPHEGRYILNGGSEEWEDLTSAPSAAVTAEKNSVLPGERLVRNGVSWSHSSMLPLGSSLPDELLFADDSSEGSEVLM
Experimental: (§1) IC50 values for compound inhibition of AXL, FLT3, MERTK and TYRO3 activity were determined by using a TR-FRET activity assay. A polypeptide substrate with a fluorescent label is phosphorylated on a tyrosine by each enzyme, where the now phosphorylated product is bound by a Europium-labeled antibody specific to that phosphorylation site. The proximity between the antibody and the substrate gives a signal known as TR-FRET. As the enzyme is inhibited by compound, less phosphorylated peptide product is made causing a decrease in overall signal.
(§2) Activity assays were performed in a 384-well, small volume, black microplates in an active enzyme volume of 10 μL and final developed volume of 20 μL. Final assay conditions are 50 mM HEPES pH 7.5, 10 mM MgCl2, 1 mM EGTA, 0.01% Brij 35 and 1 mM DTT all at RT. Enzyme, substrate labeled peptide and compound are mixed, and then the reaction is initiated with the addition of ATP at Km concentration for each enzyme. The reaction is allowed to run 60 minutes and then quenched with a 12.5 mM EDTA (ethylenediamine tetraacetic acid) solution. The plate is then developed with the addition of Europium labeled antibody for a final volume of 20 μL and is then incubated for 30 minutes in darkness. Plates are read in a Pherastar plate reader. Data is analyzed in GraphPad PRISM.
(§3) The results of these assays are shown in Table 1, below, wherein “No.” designates compound number (FIG. 1); “A” represents a value of ≤100 nM; “B” a value of >100 nM and ≤1 μM; “C” a value of >1 μM and ≤10 μM; “D” a value of >10 μM; “ND” is not determined. The ratio of Mer to FLT3 is calculated as follows: FLT3 IC50/Mer IC50. “+” represents a ratio of >2.0 and <10; “++” represents a ratio of between 10 and 100; and “+++” represents a ratio of >100.

TYRO3 = target: T2, TYRO3 (Homo sapiens, UniProt Q06418); assay: TR-FRET kinase activity assay, TYRO3; format: biochemical; conditions: ATP at Km, 60 minutes
T2 sequence (Q06418 41-890): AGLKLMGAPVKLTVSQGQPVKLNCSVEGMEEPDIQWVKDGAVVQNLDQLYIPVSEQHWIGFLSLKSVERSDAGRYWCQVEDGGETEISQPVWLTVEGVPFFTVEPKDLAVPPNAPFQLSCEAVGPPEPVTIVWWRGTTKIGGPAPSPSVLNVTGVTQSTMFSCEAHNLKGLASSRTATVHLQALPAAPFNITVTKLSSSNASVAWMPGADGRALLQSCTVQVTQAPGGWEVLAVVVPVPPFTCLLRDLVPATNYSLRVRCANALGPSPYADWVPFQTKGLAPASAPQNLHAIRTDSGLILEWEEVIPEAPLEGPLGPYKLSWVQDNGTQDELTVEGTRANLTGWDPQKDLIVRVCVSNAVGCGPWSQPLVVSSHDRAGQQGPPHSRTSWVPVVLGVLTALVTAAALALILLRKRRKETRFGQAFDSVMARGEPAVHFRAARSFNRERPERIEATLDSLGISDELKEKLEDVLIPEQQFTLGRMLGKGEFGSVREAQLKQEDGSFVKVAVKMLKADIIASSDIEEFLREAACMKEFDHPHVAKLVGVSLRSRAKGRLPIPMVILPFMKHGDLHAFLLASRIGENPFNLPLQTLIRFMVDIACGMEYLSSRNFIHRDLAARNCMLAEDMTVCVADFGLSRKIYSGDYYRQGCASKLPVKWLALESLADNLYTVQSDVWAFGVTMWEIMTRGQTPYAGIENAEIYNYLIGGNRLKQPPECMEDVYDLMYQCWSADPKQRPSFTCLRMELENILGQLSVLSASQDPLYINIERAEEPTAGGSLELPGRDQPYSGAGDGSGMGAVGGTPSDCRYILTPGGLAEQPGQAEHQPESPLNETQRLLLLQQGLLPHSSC
Experimental: as §1, §2, §3

Structure (SMILES) | IC50 (MERTK) | FLT3/Mer ratio (FLT3 IC50/Mer IC50) (MERTK) | IC50 (TYRO3)
COCC[C@@H](C)Nc1ncc2c(-c3ccc(CN4CCOCC4)cc3)cc([C@H]3CC[C@H](O)CC3)n2n1 [Compound 212] | ≤ 100 nM | ++ (“++” represents a ratio of between 10 and 100) | 100 to 1000 nM
COC[C@H](C)Nc1ncc2c(-c3ccc(C)cn3)cc([C@H]3CC[C@H](O)CC3)n2n1 [Compound 258] | ≤ 100 nM | ++ (“++” represents a ratio of between 10 and 100) | ≤ 100 nM
COC[C@H](C)Nc1ncc2c(-c3cncc(C(=O)N4CCOCC4)c3)cc([C@H]3CC[C@H](O)CC3)n2n1 [Compound 233] | ≤ 100 nM | +++ (“+++” represents a ratio of >100) | ≤ 100 nM
Cc1cc(-c2cc([C@H]3CC[C@H](O)CC3)n3nc(N[C@@H](C)COC(C)C)ncc23)ccn1 [Compound 215] | ≤ 100 nM | +++ (“+++” represents a ratio of >100) | ≤ 100 nM
C[C@@H](CC1CC1)Nc1ncc2c(-c3ccc(CN4CCN(C)CC4)cc3)cc([C@H]3CC[C@H](O)CC3)n2n1 [Compound 216] | ≤ 100 nM | ++ (“++” represents a ratio of between 10 and 100) | ≤ 100 nM
C[C@@H](CC(F)(F)F)Nc1ncc2c(-c3cnn(C4COC4)c3)cc([C@H]3CC[C@H](O)CC3)n2n1 [Compound 269] | ≤ 100 nM | ++ (“++” represents a ratio of between 10 and 100) | ≤ 100 nM
COC[C@H](C)Nc1ncc2c(-c3cncc(F)c3)cc([C@H]3CC[C@H](O)CC3)n2n1 [Compound 195] | ≤ 100 nM | +++ (“+++” represents a ratio of >100) | ≤ 100 nM
COC[C@H](C)Nc1ncc2c(-c3cncc(S(C)(=O)=O)c3)cc([C@H]3CC[C@H](O)CC3)n2n1 [Compound 194] | ≤ 100 nM | +++ (“+++” represents a ratio of >100) | ≤ 100 nM
COC[C@H](C)Nc1ncc2c(-c3cccc(CN4CCC(F)(F)C4)c3)cc([C@H]3CC[C@H](O)CC3)n2n1 [Compound 223] | ≤ 100 nM | +++ (“+++” represents a ratio of >100) | ≤ 100 nM
COC[C@H](C)Nc1ncc2c(-c3cn(C)nc3C)cc([C@H]3CC[C@H](O)CC3)n2n1 [Compound 260] | ≤ 100 nM | +++ (“+++” represents a ratio of >100) | ≤ 100 nM
COC[C@H](C)Nc1ncc2c(-c3ccc4c(c3)CC(=O)N4)cc([C@H]3CC[C@H](O)CC3)n2n1 [Compound 251] | ≤ 100 nM | +++ (“+++” represents a ratio of >100) | ≤ 100 nM
COC[C@H](C)Nc1ncc2c(-c3ccn(C)n3)cc([C@H]3CC[C@H](O)CC3)n2n1 [Compound 208] | ≤ 100 nM | +++ (“+++” represents a ratio of >100) | ≤ 100 nM
Cc1cc(-c2cc([C@H]3CC[C@H](O)CC3)n3nc(N[C@@H](C)CC(F)(F)F)ncc23)ccn1 [Compound 213] | ≤ 100 nM | +++ (“+++” represents a ratio of >100) | ≤ 100 nM
CNC(=O)Cn1cc(-c2cc([C@H]3CC[C@H](O)CC3)n3nc(N[C@@H](C)COC)ncc23)cn1 [Compound 241] | ≤ 100 nM | +++ (“+++” represents a ratio of >100) | ≤ 100 nM
COC[C@H](C)Nc1ncc2c(-c3ccc(C)nc3)cc([C@H]3CC[C@H](O)CC3)n2n1 [Compound 246] | ≤ 100 nM | +++ (“+++” represents a ratio of >100) | ≤ 100 nM
C[C@@H](COC(F)F)Nc1ncc2c(-c3cnn(C4COC4)c3)cc([C@H]3CC[C@H](O)CC3)n2n1 [Compound 270] | ≤ 100 nM | +++ (“+++” represents a ratio of >100) | ≤ 100 nM
COC[C@H](C)Nc1ncc2c(-c3cnn([C@H]4CCOC4)c3)cc([C@H]3CC[C@H](O)CC3)n2n1 [Compound 243] | ≤ 100 nM | +++ (“+++” represents a ratio of >100) | ≤ 100 nM
COC[C@H](C)Nc1ncc2c(-c3cn(C[Si](C)(C)C)nn3)cc([C@H]3CC[C@H](O)CC3)n2n1 [Compound 248] | ≤ 100 nM | +++ (“+++” represents a ratio of >100) | ≤ 100 nM
COC[C@H](C)Nc1ncc2c(-c3ccc(C(=O)N4CCCC4)cc3)cc([C@H]3CC[C@H](O)CC3)n2n1 [Compound 196] | ≤ 100 nM | +++ (“+++” represents a ratio of >100) | ≤ 100 nM
CNC(=O)c1cncc(-c2cc([C@H]3CC[C@H](O)CC3)n3nc(N[C@@H](C)COC)ncc23)c1 [Compound 245] | ≤ 100 nM | +++ (“+++” represents a ratio of >100) | ≤ 100 nM
COC[C@H](C)Nc1ncc2c(-c3cncc(C(N)=O)c3)cc([C@H]3CC[C@H](O)CC3)n2n1 [Compound 247] | ≤ 100 nM | +++ (“+++” represents a ratio of >100) | ≤ 100 nM

Reference: patent US11040981B2, “Pyrrolotriazine compounds and methods of inhibiting TAM kinases” (Syros Pharmaceuticals, Inc., priority 2017, dated 2021)
